Assay results reported in patent US20220233743A1, “WOUND CLOSURE ENHANCEMENT METHODS AND MATERIALS VIA MANIPULATION OR AUGMENTATION OF LIPIN-1” (Board of Supervisors of Louisiana State University and …, priority 2019, published 2022).

Test system: BMDMs
Experiment: Central carbon analysis of IL-4 treated BMDMs
Format: cell-based, mouse
Conditions: 40 ng/ml IL-4 for 4 h
Method: BMDMs from lipin-1^mKO and littermate control mice were seeded at a density of 1×10^6/ml into Falcon tubes (60818-500; VWR). Cells were either treated with or without IL-4 (40 ng/ml) for 4 h. Cells were then collected and spun at 400×g for 5 min. Cell pellets were sent to Creative Proteomics (Shirley, N.Y.) for central carbon analysis.
Macrophages need to align individual metabolic pathways to effectively respond to stimuli. The inventors wanted to understand the consequences of lipin-1 activity on immunometabolic responses in macrophages after stimulation with IL-4. WT and lipin-1 KO macrophages were stimulated with and without 40 ng/ml IL-4 for 4 h. Cell pellets were then sent to Creative Proteomics for central carbon analysis to determine the abundance of metabolites in major metabolic pathways, such as glycolysis, TCA cycle, and PPP. At baseline, lipin-1-deficient macrophages have an altered metabolism compared with WT macrophages. Lipin-1 KO BMDMs have multiple elevated glycolytic metabolites compared with WT BMDMs (FIGS. 10 and 43). […] The inventors also see an increase in metabolites within the PPP (FIG. 10). Upregulation of the PPP can result in increased NADPH (FIG. 10).
The alterations in metabolism in lipin-1-deficient BMDMs at baseline were exacerbated upon stimulation with IL-4. […] The TCA cycle generates electron carriers (NADH) that are used by the electron transport chain to generate ATP as part of oxidative phosphorylation. […] Lipin-1-deficient macrophages have an increase in the initial metabolites of the PPP, 6P-gluconate. The conversion of glucose-6P to 6P-gluconate generates NADPH, which can be used in lipid synthetic pathways (FIG. 10). […] Complete central carbon analysis can be found is found below: […]

IL-4: cytokine IL-4 (R&D Biosystems, 404-ML-050) used to stimulate macrophages; optional component of the claimed composition
6P-Gluconate, Mean (KO (lipin-1mKO) BMDMs): 0.02073
ADP, Mean (KO (lipin-1mKO) BMDMs): 0.6171
ADP-Glucose, Mean (KO (lipin-1mKO) BMDMs): 0.0026
AMP, Mean (KO (lipin-1mKO) BMDMs): 2.121
ATP, Mean (KO (lipin-1mKO) BMDMs): 0.24
Acetyl-CoA, Mean (KO (lipin-1mKO) BMDMs): 0.00588
Acetyl-Phosphate, Mean (KO (lipin-1mKO) BMDMs): 0.4686
Acetylglucosamine-1P, Mean (KO (lipin-1mKO) BMDMs): 0.1085
Acetylglucosamine-6P, Mean (KO (lipin-1mKO) BMDMs): 0.4128
Citrate, Mean (KO (lipin-1mKO) BMDMs): 17.69
DHAP, Mean (KO (lipin-1mKO) BMDMs): 0.05052
Erythrose-4P, Mean (KO (lipin-1mKO) BMDMs): 0.03703
Fructose-1,6-bisP, Mean (KO (lipin-1mKO) BMDMs): 0.02422
Fructose-1P, Mean (KO (lipin-1mKO) BMDMs): 0.00893
Fructose-6P, Mean (KO (lipin-1mKO) BMDMs): 0.05762
Fumarate, Mean (KO (lipin-1mKO) BMDMs): 15.48
GDP, Mean (KO (lipin-1mKO) BMDMs): 0.1098
GMP, Mean (KO (lipin-1mKO) BMDMs): 14.33
GTP, Mean (KO (lipin-1mKO) BMDMs): 0.0303
Glucosamine-6P, Mean (KO (lipin-1mKO) BMDMs): 0.03932
Glucose, Mean (KO (lipin-1mKO) BMDMs): 70.05
Glucose-1,6-bisP, Mean (KO (lipin-1mKO) BMDMs): 0.04135
Glucose-1P, Mean (KO (lipin-1mKO) BMDMs): 0.03615
Glucose-6P, Mean (KO (lipin-1mKO) BMDMs): 0.09843
Glyceraldehyde-3P, Mean (KO (lipin-1mKO) BMDMs): 0.1128
Glycerate-2,3P, Mean (KO (lipin-1mKO) BMDMs): 0.00052
Glycerate-2P, Mean (KO (lipin-1mKO) BMDMs): 0.00902
Glycerate-3P, Mean (KO (lipin-1mKO) BMDMs): 0.07625
Glycerol-3P, Mean (KO (lipin-1mKO) BMDMs): 0.8631
Glycolate, Mean (KO (lipin-1mKO) BMDMs): 20.92
Hs-CoA, Mean (KO (lipin-1mKO) BMDMs): 0.0443
Isocitrate, Mean (KO (lipin-1mKO) BMDMs): 0.2094
Latate, Mean (KO (lipin-1mKO) BMDMs): 1872
Malate, Mean (KO (lipin-1mKO) BMDMs): 73.43
Mannose-6P, Mean (KO (lipin-1mKO) BMDMs): 0.01255
NAD+, Mean (KO (lipin-1mKO) BMDMs): 0.3551
NADH, Mean (KO (lipin-1mKO) BMDMs): 0.3515
NADP+, Mean (KO (lipin-1mKO) BMDMs): 0.1139
NADPH, Mean (KO (lipin-1mKO) BMDMs): 0.1752
PEP, Mean (KO (lipin-1mKO) BMDMs): 0.04492
Phosphocreatine, Mean (KO (lipin-1mKO) BMDMs): 0.2338
Pyruvate, Mean (KO (lipin-1mKO) BMDMs): 35.61
Ribose-1,5bisP, Mean (KO (lipin-1mKO) BMDMs): 0.00195
Ribose-5P, Mean (KO (lipin-1mKO) BMDMs): 0.07803
Ribulose-1,5bisP, Mean (KO (lipin-1mKO) BMDMs): 0.02412
Ribulose-5P, Mean (KO (lipin-1mKO) BMDMs): 0.1828
Sedoheptulose-7P, Mean (KO (lipin-1mKO) BMDMs): 0.05303
Succinate, Mean (KO (lipin-1mKO) BMDMs): 36.15
Succinyl-CoA, Mean (KO (lipin-1mKO) BMDMs): 0.0234
UDP, Mean (KO (lipin-1mKO) BMDMs): 0.1803
UDP-Glucose, Mean (KO (lipin-1mKO) BMDMs): 0.5266
UDP-acetylglucosamine, Mean (KO (lipin-1mKO) BMDMs): 0.9395
UMP, Mean (KO (lipin-1mKO) BMDMs): 16.84
UTP, Mean (KO (lipin-1mKO) BMDMs): 4.409
cyclic-ADPR, Mean (KO (lipin-1mKO) BMDMs): 0.3267
cyclic-AMP, Mean (KO (lipin-1mKO) BMDMs): 0.0031
cyclic-UMP, Mean (KO (lipin-1mKO) BMDMs): 0.00447
α-Ketoglutarate, Mean (KO (lipin-1mKO) BMDMs): 3.985
6P-Gluconate, Mean (WT BMDMs): 0.01622
ADP, Mean (WT BMDMs): 0.8758
ADP-Glucose, Mean (WT BMDMs): 0.00298
AMP, Mean (WT BMDMs): 2.316
ATP, Mean (WT BMDMs): 0.2736
Acetyl-CoA, Mean (WT BMDMs): 0.00738
Acetyl-Phosphate, Mean (WT BMDMs): 0.496
Acetylglucosamine-1P, Mean (WT BMDMs): 0.1361
Acetylglucosamine-6P, Mean (WT BMDMs): 0.5132
Citrate, Mean (WT BMDMs): 15.89
DHAP, Mean (WT BMDMs): 0.05342
Erythrose-4P, Mean (WT BMDMs): 0.05778
Fructose-1,6-bisP, Mean (WT BMDMs): 0.0196
Fructose-1P, Mean (WT BMDMs): 0.00392
Fructose-6P, Mean (WT BMDMs): 0.06408
Fumarate, Mean (WT BMDMs): 19.48
GDP, Mean (WT BMDMs): 0.1479
GMP, Mean (WT BMDMs): 15.29
GTP, Mean (WT BMDMs): 0.04348
Glucosamine-6P, Mean (WT BMDMs): 0.04035
Glucose, Mean (WT BMDMs): 53.46
Glucose-1,6-bisP, Mean (WT BMDMs): 0.04287
Glucose-1P, Mean (WT BMDMs): 0.03848
Glucose-6P, Mean (WT BMDMs): 0.1044
Glyceraldehyde-3P, Mean (WT BMDMs): 0.1365
Glycerate-2,3P, Mean (WT BMDMs): 0.00063
Glycerate-2P, Mean (WT BMDMs): 0.00803
Glycerate-3P, Mean (WT BMDMs): 0.0653
Glycerol-3P, Mean (WT BMDMs): 0.982
Glycolate, Mean (WT BMDMs): 19.94
Hs-CoA, Mean (WT BMDMs): 0.0517
Isocitrate, Mean (WT BMDMs): 0.1146
Latate, Mean (WT BMDMs): 2685
Malate, Mean (WT BMDMs): 87.07
Mannose-6P, Mean (WT BMDMs): 0.01458
NAD+, Mean (WT BMDMs): 0.3884
NADH, Mean (WT BMDMs): 0.5159
NADP+, Mean (WT BMDMs): 0.1431
NADPH, Mean (WT BMDMs): 0.1122
PEP, Mean (WT BMDMs): 0.03792
Phosphocreatine, Mean (WT BMDMs): 0.2747
Pyruvate, Mean (WT BMDMs): 37.78
Ribose-1,5bisP, Mean (WT BMDMs): 0.00238
Ribose-5P, Mean (WT BMDMs): 0.08472
Ribulose-1,5bisP, Mean (WT BMDMs): 0.02488
Ribulose-5P, Mean (WT BMDMs): 0.2631
Sedoheptulose-7P, Mean (WT BMDMs): 0.04902
Succinate, Mean (WT BMDMs): 52.07
Succinyl-CoA, Mean (WT BMDMs): 0.02933
UDP, Mean (WT BMDMs): 0.2351
UDP-Glucose, Mean (WT BMDMs): 0.5467
UDP-acetylglucosamine, Mean (WT BMDMs): 1.096
UMP, Mean (WT BMDMs): 18
UTP, Mean (WT BMDMs): 5.48
cyclic-ADPR, Mean (WT BMDMs): 0.3519
cyclic-AMP, Mean (WT BMDMs): 0.00362
cyclic-UMP, Mean (WT BMDMs): 0.00372
glycolytic and TCA cycle metabolites on IL-4 stimulation (WT BMDMs): significant increase
α-Ketoglutarate, Mean (WT BMDMs): 3.785
TCA metabolite succinate on IL-4 stimulation (lipin-1 KO macrophages): decrease
isocitrate on IL-4 stimulation (lipin-1 KO macrophages): significant increase
